According to the NIST ThermoML archive (doi:10.1021/acs.jced.7b00964):
± gives the expanded uncertainty stated by the source.

Details: Liquid, Closed cell (Static) method

Row | Structure (SMILES) | vapor or sublimation pressure (243.15 K) [kPa] | vapor or sublimation pressure (253.15 K) [kPa] | vapor or sublimation pressure (263.15 K) [kPa] | vapor or sublimation pressure (273.15 K) [kPa] | vapor or sublimation pressure (283.15 K) [kPa]
1 | CC(C)C [2-methylpropane] | 46.7 ± 1 | 72.6 ± 1 | 108.7 ± 1 | 157.4 ± 1 | 221 ± 1.1
2 | F/C=C/C(F)(F)F [trans-1,3,3,3-tetrafluoropropene] | 61 ± 1 | 97 ± 1 | 147.7 ± 1 | 216.4 ± 1.1 | 308.3 ± 1.1
3 | FC(F)(F)I [trifluoroiodomethane] | 71.7 ± 1 | 109 ± 1 | 160.4 ± 1 | 228.2 ± 1.1 | 316.3 ± 1.1
